Source: patent US20240425524A1, “SPIROTRICYCLE RIPK1 INHIBITORS AND METHODS OF USES THEREOF” (Merck Sharp & Dohme LLC, priority 2021, published 2024)

Molecular target: RIPK1 (Homo sapiens (Human), UniProt Q13546)
Assay: RIPK1-ADP-Glo Enzymatic Assay
Format: biochemical
Conditions: recombinant GST-RIPK1 kinase domain (residues 1-327), 25 nM, ten-point titration, 30 minutes pre-incubation
Experimental: The enzymatic activity of RIPK1 was measured using an assay derived from ADP-Glo kit (™Promega), which provides a luminescent-based ADP detection system. Specifically, the ADP generated by RIPK1 kinase was proportionally detected as luminescent signals in a homogenous fashion. In this context, the assessment of the inhibitory effect of small molecules (EC50) was measured by the effectiveness of the compounds to inhibit the ATP to ADP conversion by RIPK1.
In this assay, the potency (EC50) of each compound was determined from a ten-point (1:3 serial dilution: top compound concentration of 100000 nM) titration curve using the following outlined procedure. To each well of a white ProxiPlus 384 well-plate, 30 nL of compound (1% DMSO in final assay volume of 3 μL) was dispensed, followed by the addition of 2 μL of 1x assay buffer (25 mM Hepes 7.3, 20 mM MgCl2, 50 mM NaCl, 1 mM DTT, 0.005% Tween20, and 0.02% BSA) containing 37.5 nM of GST-RIPK1 (recombinant GST-RIPK1 kinase domain (residues 1-327) enzyme produced from baculovirus-transfected Sf21 cells: MW=62 kDa). Plates were placed in an ambient temperature humidified chamber for a 30 minutes pre-incubation with compound. Subsequently, each reaction was initiated by the addition of 1 μL 1× assay buffer containing […] dephosphorylated-MBP substrate. The final reaction in each well of 3 μL consists of 25 nM of GST-RIPK1, 300 µM ATP, and 3 μM dephosphorylated-MBP. Kinase reactions were allowed to proceed for 150 minutes prior to adding ADP-Glo reagents per Promega's outlined kit protocol. Dose-response curves were generated by plotting percent effect (% product conversion: Y-axis) vs. Logio compound concentrations (X-axis). EC50 values were calculated using a non-linear regression, four-parameters sigmoidal dose-response model and are provided for example compounds of the invention (labeled “RIPK1 EC50 (nM)” throughout the above examples).

Sequence of RIPK1 (Q13546 1-327): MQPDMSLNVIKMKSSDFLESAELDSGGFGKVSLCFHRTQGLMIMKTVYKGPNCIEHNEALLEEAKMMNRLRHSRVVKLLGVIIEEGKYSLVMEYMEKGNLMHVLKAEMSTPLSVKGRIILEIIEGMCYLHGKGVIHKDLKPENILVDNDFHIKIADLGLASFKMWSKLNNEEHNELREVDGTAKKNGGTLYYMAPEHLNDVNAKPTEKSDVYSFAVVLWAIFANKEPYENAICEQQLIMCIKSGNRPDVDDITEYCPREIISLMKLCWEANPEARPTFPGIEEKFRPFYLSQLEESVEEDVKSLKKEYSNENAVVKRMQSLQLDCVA

First: Cc1ccc(N2CCC3(CC2)CN2CC[C@@H](c4cc(F)cc(F)c4)N2C3=O)n2nccc12 [Example 9.1, (S)-7′-(3,5-difluorophenyl)-1-(4-methylpyrazolo[1,5-α]pyridin-7-yl) dihydro-1′H,3′H,5′H-spiro [piperidine-4,2′-pyrazolo[1,2-α]pyrazol]-1′-one]
Second: Cc1ccnc(N2CCC3(CC2)CN2CC[C@@H](c4cc(F)cc(F)c4)N2C3=O)n1 [Example 1.27, (S)-7′-(3,5-difluorophenyl)-1-(4-methylpyrimidin-2-yl)dihydro-1′H,3′H,5′H-spiro[piperidine-4,2′-pyrazolo[1,2-a]pyrazol]-1′-one]
The EC50 of the first is 37-fold lower: 17 nM for the first, 637 nM for the second. The first is the more potent here.

Compared with `Cc1ccc(C(=O)N2CCC3(CC2)CN2CC[C@@H](c4cc(F)cc(F)c4)N2C3=O)cc1F` [Example 4.22, (S)-7′-(3,5-difluorophenyl)-1-(3-fluoro-4-methylbenzoyl) dihydro-1′H,3′H,5′H-spiro[piperidine-4,2′-pyrazolo[1,2-a]pyrazol]-l′-one], `COc1ccc(C(=O)N2CCC3(CC2)CN2CC[C@@H](c4cc(F)cc(F)c4)N2C3=O)cc1F` [Example 4.16, (S)-7′-(3,5-difluorophenyl)-1-(3-fluoro-4-methoxybenzoyl) dihydro-l′H,3′H,5′H-spiro[piperidine-4,2′-pyrazolo[1,2-a]pyrazol]-l′-one] is 1.8-fold higher in EC50: 46 nM for the first, 83 nM for the second. The first is the more potent here.

`O=C1N2[C@H](c3cc(F)cc(F)c3)CCN2CC12CCN(c1nccc(C(F)(F)F)n1)CC2` [Example 1.92, (S)-7′-(3,5-difluorophenyl)-1-(4-(trifluoromethyl)pyrimidin-2-yl)dihydro-1′H,3′H,5′H-spiro[piperidine-4,2′-pyrazolo[1,2-a]pyrazol]-1′-one] and `O=C1N2[C@H](c3cc(F)cc(F)c3)CCN2CC12CCN(c1cc(C(F)(F)F)ncn1)CC2` [Example 1.94, (S)-7′-(3,5-difluorophenyl)-1-(6-(trifluoromethyl)pyrimidin-4-yl)dihydro-1′H,3′H,5′H-spiro[piperidine-4,2′-pyrazolo[1,2-a]pyrazol]-1′-one] are within 1.5-fold of each other in EC50: 91 nM for the first, 85 nM for the second.

Going from `O=C1N2[C@H](c3cc(F)cc(F)c3)CCN2CC12CCN(c1ncc(F)c(C(F)F)n1)CC2` [Example 1.57, (S)-1-(4-(difluoromethyl)-5-fluoropyrimidin-2-yl)-7′-(3,5-difluorophenyl)dihydro-1′H,3′H,5′H-spiro[piperidine-4,2′-pyrazolo[1,2-a]pyrazol]-1′-one] to `COc1nc(N2CCC3(CC2)CN2CC[C@@H](c4cc(F)cc(F)c4)N2C3=O)ncc1C` [Example 1.23, (S)-7′-(3,5-difluorophenyl)-1-(4-methoxy-5-methylpyrimidin-2-yl)dihydro-1′H,3′H,5′H-spiro[piperidine-4,2′-pyrazolo[1,2-a]pyrazol]-1′-one], the EC50 rises from 26 nM to 68 nM (2.6-fold).

Going from `Cc1csc2ncnc(N3CCC4(CC3)CN3CC[C@@H](c5cc(F)cc(F)c5)N3C4=O)c12` [Example 1.73, (S)-7′-(3,5-difluorophenyl)-1-(5-methylthieno[2,3-d]pyrimidin-4-yl)dihydro-1′H,3′H,5′H-spiro[piperidine-4,2′-pyrazolo[1,2-a]pyrazol]-l′-one] to `CCc1cnc(N2CCC3(CC2)CN2CC[C@@H](c4cc(F)cc(F)c4)N2C3=O)nc1` [Example 1.28, (S)-7′-(3,5-difluorophenyl)-1-(5-ethylpyrimidin-2-yl)dihydro-1′H,3′H,5′H-spiro[piperidine-4,2′-pyrazolo[1,2-a]pyrazol]-1′-one], the EC50 rises from 4 nM to 409 nM (100-fold).

Going from `CC(C)c1nc(Cl)cc(N2CCC3(CC2)CN2CC[C@@H](c4cc(F)cc(F)c4)N2C3=O)n1` [Example 1.47, (S)-1-(6-chloro-2-isopropylpyrimidin-4-yl)-7′-(3,5-difluorophenyl)dihydro-1′H,3′H,5′H-spiro[piperidine-4,2′-pyrazolo[1,2-a]pyrazol]-1′-one] to `CC(C)c1nccc(N2CCC3(CC2)CN2CC[C@@H](c4cc(F)cc(F)c4)N2C3=O)n1` [Example 1.49, (S)-7′-(3,5-difluorophenyl)-1-(2-isopropylpyrimidin-4-yl)dihydro-1′H,3′H,5′H-spiro[piperidine-4,2′-pyrazolo[1,2-a]pyrazol]-1′-one], the EC50 rises from 153 nM to 295 nM (1.9-fold).

`Cc1ccc(C(=O)N2CCC3(CC2)CN2CC[C@@H](c4cc(F)cc(F)c4)N2C3=O)cc1` [Example 4.3, (S)-7′-(3,5-difluorophenyl)-1-(4-methylbenzoyl)dihydro-1′H,3′H,5′H-spiro[piperidine-4,2′-pyrazolo[1,2-a]pyrazol]-l′-one] and `O=C(c1cccc(F)c1)N1CCC2(CC1)CN1CC[C@@H](c3cc(F)cc(F)c3)N1C2=O` [Example 4.25, (S)-7′-(3,5-difluorophenyl)-1-(3-fluorobenzoyl) dihydro-1′H,3′H,5′H-spiro[piperidine-4,2′-pyrazolo[1,2-a]pyrazol]-l′-one] are within 1.5-fold of each other in EC50: 38 nM for the first, 35 nM for the second.

Compared with `Cc1cnn(-c2cnc(N3CCC4(CC3)CN3CC[C@@H](c5cc(F)cc(F)c5)N3C4=O)cn2)c1` [Example 2.15, (S)-7′-(3,5-difluorophenyl)-1-(5-(4-methyl-1H-pyrazol-1-yl)pyrazin-2-yl)dihydro-l′H,3′H,5′H-spiro[piperidine-4,2′-pyrazolo[1,2-a]pyrazol]-1′-one], `Cn1cc(-c2cc(N3CCC4(CC3)CN3CC[C@@H](c5cc(F)cc(F)c5)N3C4=O)ncn2)cn1` [Example 1.93, (S)-7′-(3,5-difluorophenyl)-1-(6-(1-methyl-1H-pyrazol-4-yl)pyrimidin-4-yl)dihydro-1′H,3′H,5′H-spiro[piperidine-4,2′-pyrazolo[1,2-a]pyrazol]-1′-one] is 4.7-fold lower in EC50: 80 nM for the first, 17 nM for the second. The second is the more potent here.

`COc1cc(F)cc(C(=O)N2CCC3(CC2)CN2CC[C@@H](c4cc(F)cc(F)c4)N2C3=O)c1` [Example 4.27, (S)-7′-(3,5-difluorophenyl)-1-(3-fluoro-5-methoxybenzoyl) dihydro-l′H,3′H,5′H-spiro[piperidine-4,2′-pyrazolo[1,2-a]pyrazol]-l′-one] and `O=C(c1cccc(F)c1Cl)N1CCC2(CC1)CN1CC[C@@H](c3cc(F)cc(F)c3)N1C2=O` [Example 4.28, (S)-1-(2-chloro-3-fluorobenzoyl)-7′-(3,5-difluorophenyl)dihydro-1′H,3′H,5′H-spiro[piperidine-4,2′-pyrazolo[1,2-a]pyrazol]-l′-one] are within 1.5-fold of each other in EC50: 26 nM for the first, 36 nM for the second.

First: Cn1cnc(N2CCC3(CC2)CN2CC[C@@H](c4cc(F)cc(F)c4)N2C3=O)cc1=O [Example 1.91, (S)-7′-(3,5-difluorophenyl)-1-(1-methyl-6-oxo-1,6-dihydropyrimidin-4-yl)dihydro-1′H,3′H,5′H-spiro [piperidine-4,2′-pyrazolo[1,2-a]pyrazol]-1′-one]
Second: CCc1nccc(N2CCC3(CC2)CN2CC[C@@H](c4cc(F)cc(F)c4)N2C3=O)n1 [Example 1.20, (S)-7′-(3,5-difluorophenyl)-1-(2-ethylpyrimidin-4-yl)dihydro-1′H,3′H,5′H-spiro[piperidine-4,2′-pyrazolo[1,2-a]pyrazol]-1′-one]
The EC50 of the first is 4.7-fold higher: 750 nM for the first, 159 nM for the second.

First: CN(C)c1cc(Cl)nc(N2CCC3(CC2)CN2CC[C@@H](c4cc(F)cc(F)c4)N2C3=O)n1 [Example 1.61, (S)-1-(4-chloro-6-(dimethylamino)pyrimidin-2-yl)-7′-(3,5-difluorophenyl)dihydro-1′H,3′H,5′H-spiro[piperidine-4,2′-pyrazolo[1,2-a]pyrazol]-1′-one]
Second: Cc1cc(N2CCC3(CC2)CN2CC[C@@H](c4cc(F)cc(F)c4)N2C3=O)nc(C#N)n1 [Example 1.16, (S)-4-(7′-(3,5-difluorophenyl)-1′-oxodihydro-1′H,3′H,5′H-spiro[piperidine-4,2′-pyrazolo[1,2-a]pyrazol]-1-yl)-6-methylpyrimidine-2-carbonitrile]
The EC50 of the first is 13-fold higher: 904 nM for the first, 67 nM for the second. The second is the more potent here.

First: O=C1N2[C@H](c3cc(F)cc(F)c3)CCN2CC12CCN(c1ccc(C(F)(F)F)cn1)CC2 [Example 1.39, (S)-7′-(3,5-difluorophenyl)-1-(5-(trifluoromethyl)pyridin-2-yl)dihydro-1′H,3′H,5′H-spiro[piperidine-4,2′-pyrazolo[1,2-a]pyrazol]-1′-one]
Second: O=C1N2[C@H](c3cc(F)cc(F)c3)CCN2CC12CCN(c1ccc(OC(F)F)cn1)CC2 [Example 2.21, (S)-1-(5-(difluoromethoxy)pyridin-2-y1)-7′-(3,5-difluorophenyl)dihydro-1′H,3′H,5′H-spiro[piperidine-4,2′-pyrazolo[1,2-a]pyrazol]-1′-one]
The EC50 of the first is 2.8-fold higher: 77 nM for the first, 28 nM for the second.

Compound `Cn1ccc(C(=O)N2CCC3(CC2)CN2CC[C@@H](c4cc(F)cc(F)c4)N2C3=O)n1` [Example 4.6, (S)-7′-(3,5-difluorophenyl)-1-(1-methyl-1H-pyrazole-3-carbonyl)dihydro-1′H,3′H,5′H-spiro[piperidine-4,2′-pyrazolo[1,2-a]pyrazol]-l′-one] has an EC50 of 594 nM.
